Experimental data reported in paper PMC6211260 (Journal of Enzyme Inhibition and Medicinal Chemistry, 2018).

Columns and labels:
[1] = tested on: Colo 205 colon cancer cell line; experiment: NCI-60 single-dose screening; assay type: cell-based; details: 10 µM
Description: (§1) Screening against the cancer cell lines was carried out at the National Cancer Institute (NCI, Bethesda, Maryland, USA) applying the standard protocol of the NCI[22].
(§2) The final target compounds were submitted to the National Cancer Institute (NCI), Maryland, USA[23]. Thirty-one compounds were selected to be tested over 60 cell lines at single dose 10 µM.

[2] = tested on: HCC-2998 colon cancer cell line; experiment: NCI-60 single-dose screening; assay type: cell-based; details: 10 µM
Description: as §1, §2

[3] = tested on: LOX IMVI melanoma cell line; experiment: NCI-60 single-dose screening; assay type: cell-based; details: 10 µM
Description: as §1, §2

[4] = tested on: SF-295 CNS cancer cell line; experiment: NCI-60 single-dose screening; assay type: cell-based; details: 10 µM
Description: as §1, §2

[5] = tested on: SK-MEL-28 melanoma cell line; experiment: NCI-60 single-dose screening; assay type: cell-based; details: 10 µM
Description: as §1, §2

[6] = tested on: SK-MEL-5 melanoma cell line; experiment: NCI-60 single-dose screening; assay type: cell-based; details: 10 µM
Description: as §1, §2

CNS cancer cell lines = experiment: NCI five-dose testing, subpanel mean; assay type: cell-based; details: subpanel IV: CNS cancer
Description: as §1

Leukaemia cell lines = experiment: NCI five-dose testing, subpanel mean; assay type: cell-based; details: subpanel I: Leukaemia
Description: as §1

breast cancer cell lines = experiment: NCI five-dose testing, subpanel mean; assay type: cell-based; details: subpanel IX: breast cancer
Description: as §1

colon cancer cell lines = experiment: NCI five-dose testing, subpanel mean; assay type: cell-based; details: subpanel III: colon cancer
Description: as §1

melanoma cell lines = experiment: NCI five-dose testing, subpanel mean; assay type: cell-based; details: subpanel V: melanoma
Description: as §1

[7] = tested on: non-small cell lung cancer cell lines; experiment: NCI five-dose testing, subpanel mean; assay type: cell-based; details: subpanel II: non-small cell lung cancer
Description: as §1

[8] = tested on: ovarian cancer cell lines; experiment: NCI five-dose testing, subpanel mean; assay type: cell-based; details: subpanel VI: ovarian cancer
Description: as §1

[9] = tested on: prostate cancer cell lines; experiment: NCI five-dose testing, subpanel mean; assay type: cell-based; details: subpanel VIII: prostate cancer
Description: as §1

renal cancer cell lines = experiment: NCI five-dose testing, subpanel mean; assay type: cell-based; details: subpanel VII: renal cancer
Description: as §1

[10] = tested on: A498 renal cancer cell line; experiment: NCI five-dose testing; assay type: cell-based; details: A498
Description: as §1

[11] = tested on: HOP-92 non-small cell lung cancer cell line; experiment: NCI five-dose testing; assay type: cell-based; details: HOP-92
Description: as §1

[12] = tested on: HT-29 colon cancer cell line; experiment: NCI five-dose testing; assay type: cell-based; details: HT-29
Description: as §1

[13] = tested on: K-562 leukaemia cell line; experiment: NCI five-dose testing; assay type: cell-based; details: K-562
Description: as §1

[14] = tested on: MDA-MB-468 breast cancer cell line; experiment: NCI five-dose testing; assay type: cell-based; details: MDA-MB-468
Description: as §1

[15] = tested on: OVCAR-4 ovarian cancer cell line; experiment: NCI five-dose testing; assay type: cell-based; details: OVCAR-4
Description: as §1

[16] = tested on: PC-3 prostate cancer cell line; experiment: NCI five-dose testing; assay type: cell-based; details: PC-3
Description: as §1

[17] = tested on: SK-MEL-5 melanoma cell line; experiment: NCI five-dose testing; assay type: cell-based; details: SK-MEL-5
Description: as §1

[18] = tested on: U251 CNS cancer cell line; experiment: NCI five-dose testing; assay type: cell-based; details: U251
Description: as §1

BRAF (V600E) = target: T1, BRAF (V600E) (Homo sapiens, UniProt P15056, V600E); experiment: In vitro kinase screening (Kinase HotSpot); assay type: biochemical
T1 construct: purchased Reaction Biology Corp
T1 sequence (P15056 whole entry V600E): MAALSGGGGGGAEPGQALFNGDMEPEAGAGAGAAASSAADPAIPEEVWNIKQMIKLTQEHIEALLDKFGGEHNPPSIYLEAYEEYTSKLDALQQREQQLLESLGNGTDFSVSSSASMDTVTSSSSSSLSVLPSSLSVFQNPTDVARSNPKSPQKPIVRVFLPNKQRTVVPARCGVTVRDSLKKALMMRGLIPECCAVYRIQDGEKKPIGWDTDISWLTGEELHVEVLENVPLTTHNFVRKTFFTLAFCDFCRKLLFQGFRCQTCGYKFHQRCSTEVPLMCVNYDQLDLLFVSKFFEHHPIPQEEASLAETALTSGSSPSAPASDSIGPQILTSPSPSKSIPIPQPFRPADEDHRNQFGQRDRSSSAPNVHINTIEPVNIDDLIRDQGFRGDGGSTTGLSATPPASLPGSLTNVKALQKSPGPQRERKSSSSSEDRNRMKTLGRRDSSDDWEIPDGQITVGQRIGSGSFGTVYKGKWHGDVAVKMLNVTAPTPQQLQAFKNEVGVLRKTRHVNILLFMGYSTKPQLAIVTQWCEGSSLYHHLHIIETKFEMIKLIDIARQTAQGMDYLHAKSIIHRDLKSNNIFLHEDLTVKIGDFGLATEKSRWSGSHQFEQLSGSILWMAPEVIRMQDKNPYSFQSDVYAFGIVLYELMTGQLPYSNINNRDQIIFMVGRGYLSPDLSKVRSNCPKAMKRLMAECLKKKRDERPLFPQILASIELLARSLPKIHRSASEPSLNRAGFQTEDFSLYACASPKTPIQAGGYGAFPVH
Description: (§3) To investigate the biological target of compound, Reaction Biology Corp. Kinase HotSpotSM service was used adopting standard assay protocol.

CDK2/cyclin E = target: T2, CDK2/cyclin E (Homo sapiens, UniProt P24941); experiment: In vitro kinase screening (Kinase HotSpot); assay type: biochemical; details: single dose of 10 µM
T2 construct: purchased Reaction Biology Corp
Description: as §3

ERK2/MAPK1 = target: T3, ERK2/MAPK1 (Homo sapiens, UniProt P28482); experiment: In vitro kinase screening (Kinase HotSpot); assay type: biochemical; details: single dose of 10 µM
T3 construct: purchased Reaction Biology Corp
T3 sequence (P28482 whole entry): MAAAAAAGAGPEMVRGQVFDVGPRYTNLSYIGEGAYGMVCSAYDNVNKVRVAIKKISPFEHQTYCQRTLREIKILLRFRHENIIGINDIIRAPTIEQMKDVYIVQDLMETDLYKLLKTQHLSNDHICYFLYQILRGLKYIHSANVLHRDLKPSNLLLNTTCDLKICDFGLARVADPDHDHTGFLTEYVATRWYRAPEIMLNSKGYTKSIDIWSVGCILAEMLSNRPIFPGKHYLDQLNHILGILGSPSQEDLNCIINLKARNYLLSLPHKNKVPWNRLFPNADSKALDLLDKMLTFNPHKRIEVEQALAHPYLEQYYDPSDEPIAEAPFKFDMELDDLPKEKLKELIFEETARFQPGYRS
Description: as §3

FMS = target: T4, FMS (Homo sapiens, UniProt P07333); experiment: In vitro kinase screening (Kinase HotSpot); assay type: biochemical; details: single dose of 10 µM
T4 construct: purchased Reaction Biology Corp
T4 sequence (P07333 20-972): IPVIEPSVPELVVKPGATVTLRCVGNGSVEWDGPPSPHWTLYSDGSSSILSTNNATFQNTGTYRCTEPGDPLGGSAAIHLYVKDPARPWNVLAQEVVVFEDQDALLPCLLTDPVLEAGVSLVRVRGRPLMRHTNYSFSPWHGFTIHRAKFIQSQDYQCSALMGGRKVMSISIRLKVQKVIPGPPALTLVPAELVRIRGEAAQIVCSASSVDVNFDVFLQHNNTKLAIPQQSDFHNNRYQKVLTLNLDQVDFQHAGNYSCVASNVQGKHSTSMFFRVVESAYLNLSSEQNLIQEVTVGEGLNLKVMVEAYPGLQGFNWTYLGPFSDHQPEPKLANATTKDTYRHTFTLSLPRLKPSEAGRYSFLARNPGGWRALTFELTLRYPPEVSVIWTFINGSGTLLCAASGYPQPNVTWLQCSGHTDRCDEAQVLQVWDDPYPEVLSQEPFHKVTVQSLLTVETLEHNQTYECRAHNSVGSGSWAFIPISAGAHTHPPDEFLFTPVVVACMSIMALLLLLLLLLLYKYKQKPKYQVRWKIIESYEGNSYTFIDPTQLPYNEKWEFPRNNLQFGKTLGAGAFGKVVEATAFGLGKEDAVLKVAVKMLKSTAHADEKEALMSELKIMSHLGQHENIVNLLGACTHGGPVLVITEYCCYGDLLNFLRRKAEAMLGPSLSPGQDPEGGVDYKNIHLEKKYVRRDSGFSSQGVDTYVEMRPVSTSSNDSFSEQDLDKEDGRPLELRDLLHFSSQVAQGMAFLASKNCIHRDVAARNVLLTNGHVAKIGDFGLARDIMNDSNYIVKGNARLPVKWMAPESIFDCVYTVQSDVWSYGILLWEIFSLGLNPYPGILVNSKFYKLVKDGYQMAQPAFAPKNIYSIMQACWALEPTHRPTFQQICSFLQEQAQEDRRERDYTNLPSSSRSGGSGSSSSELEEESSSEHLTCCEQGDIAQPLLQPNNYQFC
Description: as §3

mTOR/FRAP1 = target: T5, mTOR/FRAP1 (Homo sapiens, UniProt P42345); experiment: In vitro kinase screening (Kinase HotSpot); assay type: biochemical; details: single dose of 10 µM
T5 construct: purchased Reaction Biology Corp
Description: as §3

hERG = target: T6, hERG (Homo sapiens, UniProt Q12809); experiment: hERG binding assay (hERG Fluorescence Polarization Assay)
T6 construct: purchased Invitrogen PV5365
T6 sequence (Q12809 whole entry): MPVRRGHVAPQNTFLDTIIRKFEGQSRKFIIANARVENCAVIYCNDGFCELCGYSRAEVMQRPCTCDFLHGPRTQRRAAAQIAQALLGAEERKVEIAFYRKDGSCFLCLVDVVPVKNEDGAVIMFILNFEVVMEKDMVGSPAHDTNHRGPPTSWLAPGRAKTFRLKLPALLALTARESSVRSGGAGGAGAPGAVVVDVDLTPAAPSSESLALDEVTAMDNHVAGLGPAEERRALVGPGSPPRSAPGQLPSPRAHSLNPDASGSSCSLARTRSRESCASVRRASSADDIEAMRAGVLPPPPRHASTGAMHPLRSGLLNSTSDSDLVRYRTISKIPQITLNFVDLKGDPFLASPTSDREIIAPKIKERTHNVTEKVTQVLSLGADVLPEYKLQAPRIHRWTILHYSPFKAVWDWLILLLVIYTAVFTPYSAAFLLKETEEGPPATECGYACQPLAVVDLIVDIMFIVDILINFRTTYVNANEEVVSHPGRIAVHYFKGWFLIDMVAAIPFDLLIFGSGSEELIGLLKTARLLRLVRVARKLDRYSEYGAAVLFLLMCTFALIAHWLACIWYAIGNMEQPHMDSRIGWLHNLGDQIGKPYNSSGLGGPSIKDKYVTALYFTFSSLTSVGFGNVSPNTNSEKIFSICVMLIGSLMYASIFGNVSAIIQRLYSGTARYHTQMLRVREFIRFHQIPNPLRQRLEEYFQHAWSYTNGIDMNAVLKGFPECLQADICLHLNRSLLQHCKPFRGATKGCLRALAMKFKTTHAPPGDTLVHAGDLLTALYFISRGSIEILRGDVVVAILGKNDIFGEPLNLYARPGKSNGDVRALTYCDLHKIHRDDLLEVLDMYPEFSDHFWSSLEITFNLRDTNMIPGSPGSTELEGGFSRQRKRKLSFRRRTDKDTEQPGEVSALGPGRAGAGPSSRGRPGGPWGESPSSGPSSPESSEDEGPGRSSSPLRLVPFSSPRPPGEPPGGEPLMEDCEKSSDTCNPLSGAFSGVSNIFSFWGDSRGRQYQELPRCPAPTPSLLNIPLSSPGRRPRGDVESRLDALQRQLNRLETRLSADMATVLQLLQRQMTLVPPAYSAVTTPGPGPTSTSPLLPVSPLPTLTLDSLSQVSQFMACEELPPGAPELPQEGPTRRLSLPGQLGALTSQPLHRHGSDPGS
Description: hERG binding assay was performed using hERG Fluorescence Polarization Assay (Invitrogen: PV5365) assay kit and Synergy Neo (Biotek) and standard procedures were applied.

[19] = read-out: TGI (total growth inhibition concentration)

**Q.** Which results are given for `O=S(=O)(NCCCNc1cc(-c2cn(-c3ccccc3)nc2-c2cccc(O)c2)ccn1)c1ccc(Cl)cc1` [Compound 2l, 4-Chloro-N-(3-((4-(3-(3-hydroxyphenyl)-1-phenyl-1H-pyrazol-4-yl)pyridin-2-yl)amino)propyl) benzenesulfonamide]?
**A.** per cent inhibition [1]: 170.28%; per cent inhibition [2]: 162.39%; per cent inhibition [3]: 129.50%; per cent inhibition [4]: 155.19%; per cent inhibition [5]: 136.19%; per cent inhibition [6]: 156.35%; IC50 (CNS cancer cell lines): 1650 nM; IC50 (Leukaemia cell lines): 1440 nM; IC50 (breast cancer cell lines): 1580 nM; IC50 (colon cancer cell lines): 1510 nM; IC50 (melanoma cell lines): 1680 nM; IC50 [7]: 2320 nM; IC50 [8]: 2090 nM; IC50 [9]: 2280 nM; IC50 (renal cancer cell lines): 2060 nM; IC50 [10]: 330 nM; LD50 (lethal dose 50) [10]: 6.9 µM; IC (TGI) [10, 19]: 2200 nM; IC50 [11]: 1520 nM; LD50 (lethal dose 50) [11]: 93.2 µM; IC (TGI) [11, 19]: 4700 nM; LD50 (lethal dose 50) [12]: 4.7 µM; IC50 ([12]; read-out: IC50): 470 nM; IC (TGI) [12, 19]: 1700 nM; IC50 [13]: 430 nM; LD50 (lethal dose 50) [13]: >100 µM; IC (TGI) [13, 19]: 2500 nM; IC50 [14]: 1160 nM; LD50 (lethal dose 50) [14]: >100 µM; IC (TGI) [14, 19]: 4600 nM; IC50 [15]: 1670 nM; LD50 (lethal dose 50) [15]: >100 µM; IC (TGI) [15, 19]: 5900 nM; LD50 (lethal dose 50) [16]: >100 µM; IC50 ([16]; read-out: IC50): 1740 nM; IC (TGI) [16, 19]: 6100 nM; IC50 [17]: 1230 nM; LD50 (lethal dose 50) [17]: 5.3 µM; IC (TGI) [17, 19]: 2500 nM; LD50 (lethal dose 50) [18]: 8.8 µM; IC50 ([18]; read-out: IC50): 1350 nM; IC (TGI) [18, 19]: 3400 nM; IC50 (BRAF (V600E); BRAF(V600E)): 1160 ± 40 nM; Inhibition % (BRAF (V600E); single dose of 10 µM, BRAF (V599E) in Table 6, BRAF (V600E) in text): 93.67 ± 0.47%; Inhibition % (CDK2/cyclin E): 22.92 ± 1.14%; Inhibition % (ERK2/MAPK1): 22.21 ± 0.41%; Inhibition % (FMS): 24.24 ± 1.14%; Inhibition % (mTOR/FRAP1): 0.72 ± 0.32%; IC50 (hERG): 8280 nM
